Source: US20240408215A1, “USE OF DIAZIRINE LINKER FOR DRUG CONJUGATES” (HELMHOLTZ ZENTRUM MUNCHEN - DEUTSCHES FORSCHUNGSZENTRUM FUR …, priority 2021, published 2024)

Assay: Pulsed UV light release of 7-hydroxycoumarin in homogenous media, with dark intervals
Assay type: physicochemical
Conditions: FIG. 7

Structure (SMILES): [N-]=[N+]=NCCCCCC(=O)OCC1(COc2ccc3ccc(=O)oc3c2)N=N1 [(3-(((2-oxo-2H-chromen-7-yl)oxy)methyl)-3H-diazirin-3-yl)methyl-6-azidohexanoate]
- release of 7-hydroxycoumarin in the dark after the light pulse (1-2 minutes in the dark after each pulse): no additional leaking of payload occurs after ending the pulse
- release of 7-hydroxycoumarin upon UV light irradiation (water/EtOH/DMSO (1.0:1.0:0.1), UV light pulses, not attached to agarose): efficient release
